How the values were obtained:
hACSL5 [1] = biological target: T1, hACSL5 (Homo sapiens (Human), UniProt Q9ULC5); test: Human ACSL5 coupled enzyme Amplex Red assay; assay type: biochemical; settings: read-out: hACSL5 IC50
Outline: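 C-terminally His-tagged ACSL5 (33-683) from sf9 cells, 20 nM, was preincubated with compound in MOPS-NaOH pH 7.6 with MgCl2, peroxidase and acyl-CoA oxidase. Reactions were started with 25 μM oleate, 30 μM CoA, 1 mM ATP and 50 μM Amplex Red; fluorescence (535/590 nm) after 10 minutes at 25° C. was fitted to the Hill equation for IC50 and maximal inhibition.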
Target sequence in this assay (Q9ULC5 33-683): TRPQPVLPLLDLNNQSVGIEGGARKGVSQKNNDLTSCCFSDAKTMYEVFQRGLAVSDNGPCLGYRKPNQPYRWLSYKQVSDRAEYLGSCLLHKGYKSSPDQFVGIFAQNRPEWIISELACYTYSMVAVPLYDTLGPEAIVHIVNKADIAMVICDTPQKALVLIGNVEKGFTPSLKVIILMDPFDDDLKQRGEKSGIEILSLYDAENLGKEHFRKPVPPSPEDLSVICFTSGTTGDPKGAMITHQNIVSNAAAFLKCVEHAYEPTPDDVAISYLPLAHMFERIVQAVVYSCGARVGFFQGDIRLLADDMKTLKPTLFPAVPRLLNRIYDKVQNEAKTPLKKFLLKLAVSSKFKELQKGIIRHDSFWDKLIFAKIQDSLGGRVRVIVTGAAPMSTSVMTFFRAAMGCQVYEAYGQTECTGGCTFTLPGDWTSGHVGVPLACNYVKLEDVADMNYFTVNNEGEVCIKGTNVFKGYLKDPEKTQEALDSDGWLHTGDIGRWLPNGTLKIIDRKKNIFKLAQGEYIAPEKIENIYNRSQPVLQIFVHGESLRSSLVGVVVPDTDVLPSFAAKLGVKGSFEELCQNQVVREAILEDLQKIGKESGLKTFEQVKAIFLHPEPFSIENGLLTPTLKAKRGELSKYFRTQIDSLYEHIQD

hACSL5 [2] = biological target: T1, hACSL5; test: Cell-based assay (CBA) with B12FA in hACSL5-transfected Expi293F / FlpIn TRex293 cells; settings: hACSL5-expressing cells
Description: To assess the cell penetration and cellular activity of the compounds, a cell-based assay (CBA) was used to detect compound potency in living cells. The assay utilized the fluorescent fatty acid analogue B12FA, a boron-dipyrromethene (BODIPY™) labelled C12 fatty acid that can be incorporated into glycerophosphocholine in the cytoplasmic oil droplets of live cells. A concentration-dependent, red-shifted fluorescence can be induced by the formation of BODIPY™ excimers in the oil droplets.
Expi293F cells transfected with full length hACSL5 plasmid were selected using 1 mg/mL G418 culture medium and clones were selected by in vitro whole cell lysate (WCL) assay. The cell passage number used in the Expi293 CBA assay could not be used beyond 10 passages due to a decrease in hACSL5 expression. Therefore, a CBA using FlpIn TRex293 cells for inducible expression of hACSL5 was also established.
FlpIn TRex293 cells transfected with hACSL5 plasmid were selected in culture medium containing 15 µg/ml Blasticidin and 150 µg/ml Hygromycin. For cell-based assays, stable transfected hACSL5 cells were seeded onto a 96-well plate at 30-50k/well and incubated overnight. For the inducible system, […] tetracycline (or doxycycline) was added to culture medium of FlpIn TRex293 hACSL5 cells on the day before the assay to induce expression of hACSL5. The next day, growth media was replaced with culture medium without FBS and glucose (DMEM glucose (-), ThermoFisher) and cells were incubated for an hour before treating cells with serial diluted compounds containing 20 µM B12FA (ThermoFisher) for another 3 hours in the above medium. Cells were then fixed in 4% formaldehyde for 10 minutes and washed twice with PBS. The plate was read using the Cytation 5 imaging system with an excitation wavelength of 485 nm and observed emissions at 630 nm and 520 nm. The percentage of inhibition was calculated as: […]
wherein A is the ratio of emission intensities at 630 nm/520 nm in the absence of inhibitor (maximum ratio); B is the ratio of the intensities at those wavelengths in the presence of […] of the test compound or non-induced cells (minimum ratio); and X is the ratio of the intensities at a given compound concentration.
Concentration-response titration points for each compound tested were filled to the Hill equation yielding concentrations of half maximal inhibition […] and maximal inhibition values.
Target sequence in this assay (Q9ULC5 whole entry): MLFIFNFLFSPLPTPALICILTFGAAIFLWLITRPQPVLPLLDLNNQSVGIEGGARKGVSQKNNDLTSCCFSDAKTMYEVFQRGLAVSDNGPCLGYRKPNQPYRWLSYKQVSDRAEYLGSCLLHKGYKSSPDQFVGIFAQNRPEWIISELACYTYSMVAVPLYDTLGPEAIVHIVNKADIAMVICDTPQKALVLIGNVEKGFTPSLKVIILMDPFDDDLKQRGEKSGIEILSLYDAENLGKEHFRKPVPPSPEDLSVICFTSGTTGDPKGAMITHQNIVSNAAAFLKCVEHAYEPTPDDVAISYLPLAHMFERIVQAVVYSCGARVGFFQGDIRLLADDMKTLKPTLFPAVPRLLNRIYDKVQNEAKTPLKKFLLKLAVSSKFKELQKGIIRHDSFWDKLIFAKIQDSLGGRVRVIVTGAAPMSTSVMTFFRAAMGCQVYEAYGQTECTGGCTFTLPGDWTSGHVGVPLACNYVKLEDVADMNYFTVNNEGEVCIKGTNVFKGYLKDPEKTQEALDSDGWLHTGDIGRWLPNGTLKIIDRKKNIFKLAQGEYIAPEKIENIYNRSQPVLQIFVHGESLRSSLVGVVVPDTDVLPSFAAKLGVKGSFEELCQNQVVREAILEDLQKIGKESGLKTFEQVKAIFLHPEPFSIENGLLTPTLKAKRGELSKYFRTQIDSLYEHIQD

IC50 (hACSL5 [1])	IC50 (hACSL5 [2])	Compound
< 100 nM	100 to 500 nM	CC[C@@H](Oc1ccc(C(=O)NS(=O)(=O)C2CCN(C)CC2)c(F)c1F)c1ccc(Oc2ccccn2)cn1 [(R)-2,3-difluoro-N-((1-methylpiperidin-4-yl)sulfonyl)-4-(1-(5-(pyridin-2-yloxy)pyridin-2-yl)propoxy)benzamide]
< 100 nM	< 100 nM	CC[C@@H](Oc1ccc(C(=O)NS(=O)(=O)N2CCC(OC3CCN(C)CC3)CC2)cc1C(F)(F)F)c1ccc(Oc2ccccn2)cn1 [(R)-N-((4-((1-methylpiperidin-4-yl)oxy)piperidin-1-yl)sulfonyl)-4-(1-(5-(pyridin-2-yloxy)pyridin-2-yl)propoxy)-3-(trifluoromethyl)benzamide]
< 100 nM	< 100 nM	CC[C@@H](Oc1ccc(C(=O)NS(=O)(=O)N2CCN(C)[C@H](C)C2)c(F)c1F)c1ccc(OCC2CC2)cn1 [4-((R)-1-(5-(cyclopropylmethoxy)pyridin-2-yl)propoxy)-N-(((R)-3,4-dimethylpiperazin-1-yl)sulfonyl)-2,3-difluorobenzamide]
< 100 nM	> 500 nM	CC[C@@H](Oc1ccc(C(=O)NS(=O)(=O)c2ccc(NCCN3CCCC3)nc2)c(F)c1F)c1ccc(OCC2CC2)cn1 [(R)-4-(1-(5-(cyclopropylmethoxy)pyridin-2-yl)propoxy)-2,3-difluoro-N-((6-((2-(pyrrolidin-1-yl)ethyl)amino)pyridin-3-yl)sulfonyl)benzamide]
100 to 500 nM	100 to 500 nM	CC[C@@H](Oc1ccc(C(=O)NS(=O)(=O)N2C[C@H]3C[C@@H]2CN3C)c(F)c1F)c1ccc(OCC2CC2)cn1 [4-((R)-1-(5-(cyclopropylmethoxy)pyridin-2-yl)propoxy)-2,3-difluoro-N-(((1R,4R)-5-methyl-2,5-diazabicyclo[2.2.1]heptan-2-yl)sulfonyl)benzamide]
< 100 nM	< 100 nM	CC[C@@H](Oc1ccc(C(=O)NS(=O)(=O)N2CCN(C)CC2)cc1C(F)(F)F)c1ccc(OCC2CC2)cn1 [(R)-4-(1-(5-(cyclopropylmethoxy)pyridin-2-yl)propoxy)-N-((4-methylpiperazin-1-yl)sulfonyl)-3-(trifluoromethyl)benzamide]
< 100 nM	100 to 500 nM	CC[C@@H](Oc1ccc(C(=O)NS(=O)(=O)N2CCN(CC(C)(C)O)CC2)c(F)c1F)c1ccc(OCC2CC2)cn1 [(R)-4-(1-(5-(cyclopropylmethoxy)pyridin-2-yl)propoxy)-2,3-difluoro-N-((4-(2-hydroxy-2-methylpropyl)piperazin-1-yl)sulfonyl)benzamide]
< 100 nM	< 100 nM	CC[C@@H](Oc1ccc(C(=O)NS(=O)(=O)N2CCC(OC3CCN(C)CC3)CC2)c(F)c1F)c1ccc(Oc2ccccn2)cn1 [(R)-2,3-difluoro-N-((4-((1-methylpiperidin-4-yl)oxy)piperidin-1-yl)sulfonyl)-4-(1-(5-(pyridin-2-yloxy)pyridin-2-yl)propoxy)benzamide]
< 100 nM	100 to 500 nM	CC[C@@H](Oc1ccc(C(=O)NS(=O)(=O)c2ccc(O[C@H]3CCN(C)C3)cc2)c(F)c1F)c1ccc(OCC2CC2)cn1 [4-((R)-1-(5-(cyclopropylmethoxy)pyridin-2-yl)propoxy)-2,3-difluoro-N-((4-(((S)-1-methylpyrrolidin-3-yl)oxy)phenyl)sulfonyl)benzamide]
< 100 nM	100 to 500 nM	CC[C@@H](Oc1ccc(C(=O)NS(=O)(=O)N2CCN(CC3CC3)CC2)c(F)c1F)c1ccc(OCC2CC2)cn1 [(R)-4-(1-(5-(cyclopropylmethoxy)pyridin-2-yl)propoxy)-N-((4-(cyclopropylmethyl)piperazin-1-yl)sulfonyl)-2,3-difluorobenzamide]
< 100 nM	< 100 nM	CC[C@@H](Oc1ccc(C(=O)NS(=O)(=O)N2CCN(C)[C@@H](C)C2)c(F)c1F)c1ccc(OCC2CC2)cn1 [4-((R)-1-(5-(cyclopropylmethoxy)pyridin-2-yl)propoxy)-N-(((S)-3,4-dimethylpiperazin-1-yl)sulfonyl)-2,3-difluorobenzamide]
100 to 500 nM	100 to 500 nM	CC[C@@H](Oc1ccc(C(=O)NS(=O)(=O)c2ccc(OC3CCN(C)CC3)cc2)c(F)c1F)c1cc(OCC2CC2)ccn1 [(R)-4-(1-(4-(cyclopropylmethoxy)pyridin-2-yl)propoxy)-2,3-difluoro-N-((4-((1-methylpiperidin-4-yl)oxy)phenyl)sulfonyl)benzamide]
100 to 500 nM	100 to 500 nM	CC[C@@H](Oc1ccc(C(=O)NS(=O)(=O)N2CCN(C(C)C)CC2)c(F)c1F)c1ccc(OCC2CC2)cn1 [(R)-4-(1-(5-(cyclopropylmethoxy)pyridin-2-yl)propoxy)-2,3-difluoro-N-((4-isopropylpiperazin-1-yl)sulfonyl)benzamide]
< 100 nM	< 100 nM	CC[C@@H](Oc1ccc(C(=O)NS(=O)(=O)C(C)(C)CN(C)C)c(F)c1F)c1ccc(Oc2ccccn2)cn1 [(R)-N-((1-(dimethylamino)-2-methylpropan-2-yl)sulfonyl)-2,3-difluoro-4-(1-(5-(pyridin-2-yloxy)pyridin-2-yl)propoxy)benzamide]
< 100 nM	< 100 nM	CC[C@@H](Oc1ccc(C(=O)NS(=O)(=O)N2CCN(C)CC2(C)C)c(F)c1F)c1ccc(OCC2CC2)cn1 [(R)-4-(1-(5-(cyclopropylmethoxy)pyridin-2-yl)propoxy)-2,3-difluoro-N-((2,2,4-trimethylpiperazin-1-yl)sulfonyl)benzamide]
< 100 nM	100 to 500 nM	CC[C@@H](Oc1ccc(C(=O)NS(=O)(=O)c2ccc(OCCN3CCCC3)cc2)c(F)c1F)c1ccc(OCC2CC2)cn1 [(R)-4-(1-(5-(cyclopropylmethoxy)pyridin-2-yl)propoxy)-2,3-difluoro-N-((4-(2-(pyrrolidin-1-yl)ethoxy)phenyl)sulfonyl)benzamide]
< 100 nM	100 to 500 nM	C[C@@H](Oc1ccc(C(=O)NS(=O)(=O)c2ccc(OCCN(C)C)cc2)c(F)c1F)c1ccc(Oc2ccccn2)cn1 [(R)-N-((4-(2-(dimethylamino)ethoxy)phenyl)sulfonyl)-2,3-difluoro-4-(1-(5-(pyridin-2-yloxy)pyridin-2-yl)ethoxy)benzamide]
< 100 nM	< 100 nM	CC[C@@H](Oc1ccc(C(=O)NS(=O)(=O)N2CCC(OC3CCN(C)CC3)CC2)cc1C(F)(F)F)c1ccc(OCC2CC2)cn1 [(R)-4-(1-(5-(cyclopropylmethoxy)pyridin-2-yl)propoxy)-N-((4-((1-methylpiperidin-4-yl)oxy)piperidin-1-yl)sulfonyl)-3-(trifluoromethyl)benzamide]
< 100 nM	100 to 500 nM	CC[C@@H](Oc1ccc(C(=O)NS(=O)(=O)c2ccc(OC3CCN(CC(C)(C)O)CC3)cc2)c(F)c1F)c1ccc(OCC2CC2)cn1 [(R)-4-(1-(5-(cyclopropylmethoxy)pyridin-2-yl)propoxy)-2,3-difluoro-N-((4-((1-(2-hydroxy-2-methylpropyl)piperidin-4-yl)oxy)phenyl)sulfonyl)benzamide]
< 100 nM	< 100 nM	CC[C@@H](Oc1ccc(C(=O)NS(=O)(=O)N2CCN(C)[C@@H](C)C2)c(F)c1F)c1ccc(Oc2ccccn2)cn1 [N-(((S)-3,4-dimethylpiperazin-1-yl)sulfonyl)-2,3-difluoro-4-((R)-1-(5-(pyridin-2-yloxy)pyridin-2-yl)propoxy)benzamide]
< 100 nM	> 500 nM	CC[C@@H](Oc1ccc(C(=O)NS(=O)(=O)N2CCC(CN3CCN(CC)CC3)CC2)c(F)c1F)c1ccc(OCC2CC2)cn1 [(R)-4-(1-(5-(cyclopropylmethoxy)pyridin-2-yl)propoxy)-N-((4-((4-ethylpiperazin-1-yl)methyl)piperidin-1-yl)sulfonyl)-2,3-difluorobenzamide]
< 100 nM	> 500 nM	CC[C@@H](Oc1ccc(C(=O)NS(=O)(=O)c2ccc(OC3CCN(C)CC3)cn2)c(F)c1F)c1ccc(OCC2CC2)cn1 [(R)-4-(1-(5-(cyclopropylmethoxy)pyridin-2-yl)propoxy)-2,3-difluoro-N-((5-((1-methylpiperidin-4-yl)oxy)pyridin-2-yl)sulfonyl)benzamide]
< 100 nM	> 500 nM	CC[C@@H](Oc1ccc(C(=O)NS(=O)(=O)c2ccc(OC3CCNCC3)cc2)c(F)c1F)c1ccc(OCC2CC2)cn1 [(R)-4-(1-(5-(cyclopropylmethoxy)pyridin-2-yl)propoxy)-2,3-difluoro-N-((4-(piperidin-4-yloxy)phenyl)sulfonyl)benzamide]
